Experimental data as given in US7378246B2, “Methods and compositions for regulating adipogenesis” (The Board of Trustees of the Leland Stanford Junior …, priority 2002, dated 2008).
Where a name gives a salt, the structure may show the parent alone.

Tests used:
Assay type in all cases: cell-based
[1] = tested on: Mouse embryonic fibroblast (MEF) cells; test: Adipocyte differentiation of MEFs, Oil Red O staining; details: for adipogenesis of MEF cells: DM with 5 μM rosiglitazone, CoCl2 25 μM or DFO 25 μM, stained Day 6 (FIG. 1C); for adipocyte differentiation of control-treated MEF cells: control adenovirus, same conditions as cre-treated MEFs (FIG. 2); for adipocyte differentiation of HIF-1α deficient MEF cells: cre-treated MEFs, CoCl2 up to 50 μM, DFO up to 25 μM, entire course (FIG. 2)
Procedure: MEFs were induced to differentiate 2 days after confluence (day 0) with DM supplemented with 5 μM rosiglitazone (Alexander et al., 1998; Lehmann et al., 1995). The medium was replaced on Day 3 with DMEM plus 10% FBS, 1 μg/ml INS and 5 μM rosiglitazone, and was then changed every other day. To remove the HIF-1α gene, subconfluent culture of MEFs with HIF-1α alleles flanked by loxP sites were treated with adenovirus containing cre recombinase or control adenovirus at the multiplicity of infection (MOI) of 50 as previously described (Seagroves et al., 2001). The treated MEF cells were grown to confluence for 2 days before they were induced to differentiate as above.
(§1) To evaluate the effects of hypoxia on adipogenesis, cells were maintained at 20% O2 in standard incubator, 2% O2 in standard incubator or 0.01% O2 in an anaerobic chamber immediately following treatment with DM. Alternatively, CoCl2 or DFO was added to DM at indicated concentrations either during the initial stage of stimulation or for the entire course of differentiation.
(§2) For visualization of differentiated adipocytes, cells were washed with phosphate-buffered saline (PBS) and stained in 60% of the Oil Red O stock solution (0.5 g Oil Red O in 100 ml of isopropanol) for 30 min at 37° C. Cells were briefly washed in 60% isopropanol and then rinsed in distilled water for microscopic observation and photography.

[2] = tested on: 3T3-L1 preadipocytes; test: Adipocyte differentiation of 3T3-L1 (L1) cells, Oil Red O staining; details: for differentiation of C/EBPβ-expressing L1 cells: agent present for first 2 days of adipogenic induction, 50 μM CoCl2 or 100 μM DFO (FIG. 4B); for differentiation and/or fat accumulation of C/EBPβ-expressing L1 cells: continuous presence (6 days), 50 μM CoCl2 or 100 μM DFO, 20% O2 (FIG. 4B); for differentiation of PPARγ2-expressing L1 cells: stimulated by rosiglitazone, 50 μM CoCl2 or 100 μM DFO for 6 days (FIG. 4C); for adipocyte differentiation of L1 cells on retroviral overexpression: retroviral infection, vs vector control pLXSN, stained Day 5 (FIG. 7A)
Procedure: Based on previously described procedure (Wu et al., 1996), L1 cells were maintained in GM for 2 days after confluence. The confluent cells were treated (day 0) with differentiation medium (DM) containing 10% FBS, 10 μg/ml INS, 1 μM DEX and 0.5 mM MIX in DMEM for 2 days. Cells were then maintained in DMEM containing 10% FBS and 1 μg/ml INS, and the medium was replaced every other day.
as §1, §2
Retroviruses were produced using the phoenix cell system (Baker et al., 1992; Pear et al., 1993). L1 cells at 30-50% confluence were retrovirally infected 2-3 times with 8 μg/ml Polybrene by centrifugation at 1800-2000 rpm for 1 hr, followed by overnight incubation at 32° C. For generation of stable C/EBPβ-expressing cells, L1 cells were infected with pBABEpuro or pBABEpuro-C/EBPβ (S. R. Farmer, Boston University, Boston, Mass.), followed by selection with 1 μg/ml of puromycin (Sigma). The stable cells were grown to confluence and induced to differentiate as described above. For transient infection with pBABEpuro, pBABEpuor-PPARγ2 (B. M. Spiegelman, Harvard University, Boston, Mass.), pLXSN/HA-DEC1, pLXSN-DEC1 and pLXSN-N1, L1 cells were spin-infected and induced to differentiate as described above.

[3] = tested on: PPARγ2; test: PPARγ2 mRNA expression in L1 cells, Northern blotting; details: for PPARγ2 expression in L1 cells: 50 μM CoCl2 or 100 μM DFO during induction (FIG. 3C); for PPARγ2 expression in L1 cells with ectopic expression: retroviral infection, RNA on Day 2 after IDM stimulation (FIG. 7B)
Procedure: Total cellular RNA was isolated with Trizol reagent (Life Technologies). The following plasmids were used for cDNA template preparations by restriction digest: MSV-C/EBPβ and MSV-C/EBPδ (S. L. McKnight, Univ. Texas Southwestern Medical Center, Dallas, Tex.), pSVsport-PPARγ2 (B. M. Spiegelman), pBS-Stra13 (P. Chambon, INSERM, Strasbourg, France). Hybridization was carried out at 65° C. for 6 to 12 hr. The radioactive blot was visualized on Storm 860 PhosphoImager (Molecular Dynamics, Sunnyvale, Calif.).

[4] = tested on: PPARγ2 promoter; test: PPARγ2 promoter luciferase reporter assay in NIH-3T3 cells; details: for repression of PPARγ2 promoter activity by DEC1 fragments: 0.6-kb PPARγ2 promoter luciferase, co-transfected DEC1 fragments, 0.3 μg DNA each (FIG. 6A)
Procedure: The luciferase reporter construct pX2) under the control of the −603 to +62 PPARγ2 proximal promoter fragment (PPAR) or other deletional subclones was used as described (Tong et al., 2000). NIH-3T3 cells were transiently co-transfected with 0.3 μg each of pXP2 or PPAR and pcDNA3.1His construct expressing a DEC1 fragment using LipofectAmine Plus reagents (Life Technologies). Luciferase activities in cell lysates were measured in triplicates after 40-48 hr of incubation using Monolight 2010 Luminometer (Analytical Luminescence Laboratory, Ann Arbor, Mich.). The luciferase activity is expressed in relation to protein concentrations that vary little from well to well. Alternatively, a Renilla luciferase reporter was co-transfected as a control for transfection efficiency.

[5] = agent for first 2 days of induction with IDM, CoCl2 50 μM, DFO 100 μM, stained Day 6 (FIG. 1B)
[6] = agent in treatment media throughout the course of induction (6 days)

## CN(CCOc1ccc(CC2SC(=O)NC2=O)cc1)c1ccccn1 (centres unmarked) [rosiglitazone]
[1]; IDM supplemented with 5 μM rosiglitazone
  MEF cells that differentiate into adipocytes: 15-20%

## [Cl][Co][Cl] [CoCl2, Cobalt Chloride]
[2]; [5]
  L1 cell differentiation: sufficient to prevent L1 cell differentiation
[2]; [6]
  L1 cell differentiation: Inhibition of L1 cell differentiation
[2]
  differentiation of C/EBPβ-expressing L1 cells: still able to differentiate into fat-laden adipocytes
  differentiation and/or fat accumulation of C/EBPβ-expressing L1 cells: significantly reducing differentiation and/or fat accumulation
  differentiation of PPARγ2-expressing L1 cells: majority of the PPARγ2-expressing cells differentiate into adipocytes
[1]
  adipogenesis of MEF cells: suppresses adipogenesis
  adipocyte differentiation of control-treated MEF cells: significantly represses differentiation
  adipocyte differentiation of HIF-1α deficient MEF cells: continue to undergo significant adipocyte differentiation
[3]
  PPARγ2 expression in L1 cells: repressed

## DEC1: full-length DEC1 bHLH transcription repressor, expressed from pcDNA3.1-DEC1 or pLXSN-DEC1
[2]
  adipocyte differentiation of L1 cells on retroviral overexpression: nearly complete inhibition of adipocyte differentiation
[3]
  PPARγ2 expression in L1 cells with ectopic expression: repressed
[4]; 0.6-kb PPARγ2 promoter (−603 to +62) luciferase, compared to the vector control, co-transfection (FIG. 6A)
  repression of PPARγ2 promoter activity: 70%
[4]; 0.6-kb promoter with BsrGI-StuI fragment deleted (FIG. 6B)
  repression of FLΔBrS promoter (BrS deleted): no longer repressed

## CC(=O)N(O)CCCCCNC(=O)CCC(=O)N(O)CCCCCNC(=O)CCC(=O)N(O)CCCCCN [DFO, deferoxamine mesylate]
[2]; [5]
  L1 cell differentiation: sufficient to prevent L1 cell differentiation
[2]; [6]
  L1 cell differentiation: Inhibition of L1 cell differentiation
[2]
  differentiation of C/EBPβ-expressing L1 cells: still able to differentiate into fat-laden adipocytes
  differentiation and/or fat accumulation of C/EBPβ-expressing L1 cells: significantly reducing differentiation and/or fat accumulation
  differentiation of PPARγ2-expressing L1 cells: majority of the PPARγ2-expressing cells differentiate into adipocytes
[1]
  adipogenesis of MEF cells: suppresses adipogenesis
  adipocyte differentiation of control-treated MEF cells: significantly represses differentiation
  adipocyte differentiation of HIF-1α deficient MEF cells: continue to undergo significant adipocyte differentiation
[3]
  PPARγ2 expression in L1 cells: repressed

## HA-DEC1: HA-tagged full-length DEC1 expressed from pLXSN/HA-DEC1
[2]
  adipocyte differentiation of L1 cells on retroviral overexpression: nearly complete inhibition of adipocyte differentiation
[3]
  PPARγ2 expression in L1 cells with ectopic expression: repressed

B1: C1: C-terminal DEC1 fragment aa121-412 (protein, UniProt O14503 121-412, looked up, fragment)
chain: LQSGLQAGELSGRNVETGQEMFCSGFQTCAREVLQYLAKHENTRDLKSSQLVTHLHRVVSELLQGGTSRKPSDPAPKVMDFKEKPSSPAKGSEGPGKNCVPVIQRTFAHSSGEQSGSDTDTDSGYGGESEKGDLRSEQPCFKSDHGRRFTMGERIGAIKQESEEPPTKKNRMQLSDDEGHFTSSDLISSPFLGPHPHQPPFCLPFYLIPPSATAYLPMLEKCWYPTSVPVLYPGLNASAAALSSFMNPDKISAPLLMPQRLPSPLPAHPSVDSSVLLQALKPIPPLNLETKD
[4]
  repression of PPARγ2 promoter activity by DEC1 fragments: do not inhibit PPARγ2 promoter activity

B2: C2: C-terminal DEC1 fragment aa201-412 (protein, UniProt O14503 201-412, looked up, fragment)
chain: FKEKPSSPAKGSEGPGKNCVPVIQRTFAHSSGEQSGSDTDTDSGYGGESEKGDLRSEQPCFKSDHGRRFTMGERIGAIKQESEEPPTKKNRMQLSDDEGHFTSSDLISSPFLGPHPHQPPFCLPFYLIPPSATAYLPMLEKCWYPTSVPVLYPGLNASAAALSSFMNPDKISAPLLMPQRLPSPLPAHPSVDSSVLLQALKPIPPLNLETKD
[4]
  repression of PPARγ2 promoter activity by DEC1 fragments: do not inhibit PPARγ2 promoter activity

B3: N1: N-terminal DEC1 fragment aa1-141 containing the bHLH domain (protein, UniProt O14503 1-141, looked up, fragment)
chain: MERIPSAQPPPACLPKAPGLEHGDLPGMYPAHMYQVYKSRRGIKRSEDSKETYKLPHRLIEKKRRDRINECIAQLKDLLPEHLKLTTLGHLEKAVVLELTLKHVKALTNLIDQQQQKIIALQSGLQAGELSGRNVETGQEM
[2]
  adipocyte differentiation of L1 cells on retroviral overexpression: Significant inhibition
[3]
  PPARγ2 expression in L1 cells with ectopic expression: repressed
